Test results: patent US4322426A, “17-Substituted-6-desoxy-7,8-dihydro-6α-methylnoroxymorphone narcotic antagonists” (priority 1980, dated 1982)

Columns and labels:
[1] = system: Straub tail induced by morphine; assay: Anti-Straub Tail test, antagonism of morphine-induced Straub tail; type: in vivo, Female CF1 S mice; settings: relative to naloxone
Experimental: Narcotic analgesics produce in mice an erection and arching of the tail (90° or more) which is referable to spinal cord stimulation. This Straub tail reaction is not produced by other analgesics, including the narcotic antagonists.
H. B. Dayton and P. S. Wolf, The Pharmacologist, 10, 189 (1968)]. This property is the basis of a mouse test for narcotic antagonists.
Female CF1 S mice (fasted 17-21 hrs.), 5 per dose, were injected orally or subcutaneously (loose skin inside hind limb) with test drug at 0.67, 2, 6, 18, 54 and 162 mg/kg or other appropriate doses in 0.20 ml 1% Methocel® per mouse. Ten minutes later, 40 mg/kg (base weight) of morphine sulfate in 0.20 ml 1% Methocel® per mouse was given subcutaneously (nape of neck). The mice were observed continuously for the next 20 minutes after the first mouse of a group of 30 had received morphine. Prevention of a 90° Straub tail during this observation period was taken as indication of narcotic antagonist ability.

[2] = system: pain induced by phenylquinone; assay: Phenylquinone writhing test (PQW), analgesic activity; type: in vivo, female white mice; settings: oral
Experimental: A standard procedure for detecting and comparing the analgesic activity of a series of compounds for which there is good correlation with human efficacy is the standard phenylquinone writhing test (PQW) modified from Siegmund, et al., Proc. Soc. Exp. Biol. Med., 95, 729 (1957). A test compound suspended in 1% methocellulose was given orally to fasted (17-21 hours) female white mice, 5-20 animals per double blind test. Aqueous (0.1% phenyl-p-benzoquinone) phenylquinone was injected intraperitoneally at 24 minutes later using 0.20 ml per mouse. […] The effective analgesic dose for 50% of the mice (ED50) was calculated by the moving average method of Thompson, W. R., Bact. Rev., 11, 115-145 (1947).

[3] = system: Straub tail induced by morphine; settings: literature, Blumberg et al. 1968; cited from earlier work

| Compound | analgesic activity (in words) [2] | prevention of morphine-induced Straub tail (in words) [3] | also measured |
| --- | --- | --- | --- |
| C[C@H]1CC[C@@]2(O)[C@H]3Cc4ccc(O)c5c4[C@@]2(CCN3CC2CC2)[C@H]1O5 [Compound 1] |  |  | narcotic antagonism (in words) [1]: almost the antagonistic activity of naloxone |
| COc1ccc2c3c1O[C@H]1[C@@H](C)CC[C@@]4(O)[C@@H](C2)N(CC2CCCO2)CC[C@]314 (some centres unmarked) [Compound 6] | weakly analgetic |  |  |
| C[C@H]1CC[C@@]2(O)[C@H]3Cc4ccc(O)c5c4[C@@]2(CCN3CC2CCCO2)[C@H]1O5 (some centres unmarked) [Compound 7] | weakly analgetic |  |  |
| C=CCN1CC[C@]23c4c5ccc(O)c4O[C@H]2C(=O)CC[C@@]3(O)[C@H]1C5 [Naloxone] |  | prevent the induction of Straub tail in mice |  |
| C=CCN1CC[C@]23c4c5ccc(O)c4O[C@H]2[C@@H](O)C=C[C@H]3[C@H]1C5 [nalorphine] |  | prevent the induction of Straub tail in mice |  |
